Results on 5 compounds are retold here after patent US7659399B2, “1-thia-2,4a-diaza-cyclopenta[b]napththalene-3,4-diones and related compounds as anti-infective agents” (Achillion Pharmaceuticals, Inc., priority 2005, dated 2010).

SMILES strings stand for the structures. Counter-ions that a name gives are not always drawn.

For data set [1], the system named is HEP 2 (laryngeal carcinoma). The note with it: HEP 2 cells; positive control, known CC50; cited from earlier work.
Data set [2] has as its system CHO (Chinese hamster ovary). As to conditions: CHO cells; positive control, known CC50; cited from earlier work.
Data set [3] addresses T1, S. aureus topoisomerase IV (Staphylococcus aureus, UniProt P0C1S7+P0C1U9).
T1 construct: made in house; host or cells: E. coli
Put plainly: Topoisomerase IV decatenation assay. It is filed as biochemical. The note with it: decatenation of kinetoplast DNA; read-out: inhibition of S. aureus topoisomerase IV activity IC50. The procedure:
Enzyme activity is measured by a decatenation assay that monitors the ATP-dependent unlinking of DNA minicircles from kinetoplast DNA. Analysis is done by gel electrophoresis through 1% agarose/TBE gel. DNA is visualized with an Alpha Imager 2200 Analysis System and the IC50 determined by nonlinear regression analysis with Graphpad Prism software. S. aureus topoismerase IV enzyme subunits, grlA and grlB, are purified to homogeneity from over-expression plasmids in E. coli.

The next data set has as its system E. coli ATCC 25922. Put plainly: Minimum inhibitory concentration (MIC) assay, broth microdilution. The format is cell-based. As to conditions: Escherichia coli, ATCC25922. The procedure: (§1) The antimicrobial activity of the compounds of the invention may be evaluated by a number of methods, including the following visual minimum inhibitory concentration (MIC) assay. This assay determines the minimum concentration of compound required to inhibit growth of a bacterial strain.
(§2) Whole-cell antibacterial activity is determined by broth microdilution using conditions recommended by the National Committee for Clinical Laboratory Standards (NCCLS).
(§3) Test compounds are dissolved in DMSO and diluted 1:50 in Mueller-Hinton II broth (Becton-Dickinson) to produce a 256 μg/ml stock solution. In a 96-well microtiter plate, the compound solution is serially two-fold diluted in Mueller-Hinton II broth. After the compounds are diluted, a […] aliquot of the test organism (˜1×10^6 cfu/mL) is added to each well of the microtiter plate. The final test concentrations range from 0.125-128 μg/mL. Inoculated plates are incubated in ambient air at 37° C. for 18 to 24 hours. The organisms selected for testing included laboratory strains S. aureus ATCC 29213 and E. coli ATCC 25922 (strains purchased from American Type Culture Collection, Manassas, Va.). The minimum inhibitory concentration (MIC) was determined as the lowest concentration of compound that inhibited visible growth of the test organism.

A further data set has as its system S. aureus ATCC 29213. Described as above. The note with it: Staphylococcus aureus, ATCC29213. The format is cell-based. The procedure: as §1, §2, §3
The target in a further data set is T2, E. coli DNA gyrase (Escherichia coli, UniProt P0AES4+P0AES6).
T2 construct: made in house; host or cells: E. coli
Put plainly: DNA gyrase supercoiling assay. The format is biochemical. The procedure: Enzyme activity is measured by a supercoiling assay that monitors the ATP-dependent conversion of relaxed pBR322 DNA to the supercoiled form. Analysis is done by gel electrophoresis through 1% agarose/TBE gel. DNA is visualized with an Alpha Imager 2200 Analysis System and the IC50 determined by nonlinear regression analysis with Graphpad Prism software. E. coli DNA gyrase enzyme subunits, gyrA and gyrB, are purified to homogeneity from over-expression constructs in E. coli.

Another data set addresses S. aureus DNA gyrase (Staphylococcus aureus, UniProt P0A0K8+P20831). Put plainly: DNA gyrase supercoiling assay. As to conditions: do not inhibit. It is filed as biochemical.

T2 sequence (P0AES4 whole entry, one chain of several): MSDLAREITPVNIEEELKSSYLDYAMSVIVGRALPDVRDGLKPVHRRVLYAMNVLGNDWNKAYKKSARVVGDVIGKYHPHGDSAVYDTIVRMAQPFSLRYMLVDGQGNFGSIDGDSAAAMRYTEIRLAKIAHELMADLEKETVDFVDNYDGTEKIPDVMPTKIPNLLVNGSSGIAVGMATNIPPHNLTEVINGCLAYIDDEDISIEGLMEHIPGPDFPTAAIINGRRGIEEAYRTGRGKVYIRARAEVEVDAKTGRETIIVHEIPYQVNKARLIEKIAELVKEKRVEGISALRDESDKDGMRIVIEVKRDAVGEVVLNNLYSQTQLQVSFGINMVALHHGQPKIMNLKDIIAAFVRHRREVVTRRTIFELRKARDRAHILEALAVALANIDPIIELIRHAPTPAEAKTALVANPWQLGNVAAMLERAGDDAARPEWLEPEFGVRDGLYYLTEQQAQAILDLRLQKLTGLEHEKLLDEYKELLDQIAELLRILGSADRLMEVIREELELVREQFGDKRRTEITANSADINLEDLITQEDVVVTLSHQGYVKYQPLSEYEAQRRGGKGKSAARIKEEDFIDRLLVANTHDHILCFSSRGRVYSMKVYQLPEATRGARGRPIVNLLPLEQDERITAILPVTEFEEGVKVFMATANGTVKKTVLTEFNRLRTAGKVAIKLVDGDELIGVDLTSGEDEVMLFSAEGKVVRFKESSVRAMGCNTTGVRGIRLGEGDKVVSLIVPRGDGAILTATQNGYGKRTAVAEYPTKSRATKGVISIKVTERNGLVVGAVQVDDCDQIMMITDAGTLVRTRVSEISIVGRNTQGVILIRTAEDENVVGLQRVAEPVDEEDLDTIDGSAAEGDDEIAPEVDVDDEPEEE
Chain of S. aureus DNA gyrase (P20831 whole entry): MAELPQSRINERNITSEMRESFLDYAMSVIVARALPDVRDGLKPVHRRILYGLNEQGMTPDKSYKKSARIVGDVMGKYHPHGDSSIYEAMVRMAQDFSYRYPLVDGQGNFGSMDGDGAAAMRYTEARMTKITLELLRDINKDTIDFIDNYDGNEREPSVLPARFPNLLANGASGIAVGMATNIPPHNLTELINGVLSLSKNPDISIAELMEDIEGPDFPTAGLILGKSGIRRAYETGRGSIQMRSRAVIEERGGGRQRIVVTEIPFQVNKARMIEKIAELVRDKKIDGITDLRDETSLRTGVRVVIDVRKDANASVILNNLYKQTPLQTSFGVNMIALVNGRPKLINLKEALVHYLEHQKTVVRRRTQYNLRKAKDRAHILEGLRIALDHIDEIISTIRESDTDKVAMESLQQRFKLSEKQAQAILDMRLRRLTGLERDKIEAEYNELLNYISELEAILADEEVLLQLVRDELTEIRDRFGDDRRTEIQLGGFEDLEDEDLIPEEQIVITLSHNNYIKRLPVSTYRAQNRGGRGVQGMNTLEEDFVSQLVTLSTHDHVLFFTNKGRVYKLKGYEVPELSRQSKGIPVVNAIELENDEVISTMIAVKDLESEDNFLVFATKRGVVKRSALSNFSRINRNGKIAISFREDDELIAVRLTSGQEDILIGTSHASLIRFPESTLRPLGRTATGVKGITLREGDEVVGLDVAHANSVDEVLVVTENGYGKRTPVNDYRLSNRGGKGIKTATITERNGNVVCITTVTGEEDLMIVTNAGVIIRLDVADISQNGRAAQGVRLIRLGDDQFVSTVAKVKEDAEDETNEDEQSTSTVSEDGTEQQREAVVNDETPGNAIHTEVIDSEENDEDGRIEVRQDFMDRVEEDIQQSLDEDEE
Chain of S. aureus DNA gyrase (P0A0K8 whole entry): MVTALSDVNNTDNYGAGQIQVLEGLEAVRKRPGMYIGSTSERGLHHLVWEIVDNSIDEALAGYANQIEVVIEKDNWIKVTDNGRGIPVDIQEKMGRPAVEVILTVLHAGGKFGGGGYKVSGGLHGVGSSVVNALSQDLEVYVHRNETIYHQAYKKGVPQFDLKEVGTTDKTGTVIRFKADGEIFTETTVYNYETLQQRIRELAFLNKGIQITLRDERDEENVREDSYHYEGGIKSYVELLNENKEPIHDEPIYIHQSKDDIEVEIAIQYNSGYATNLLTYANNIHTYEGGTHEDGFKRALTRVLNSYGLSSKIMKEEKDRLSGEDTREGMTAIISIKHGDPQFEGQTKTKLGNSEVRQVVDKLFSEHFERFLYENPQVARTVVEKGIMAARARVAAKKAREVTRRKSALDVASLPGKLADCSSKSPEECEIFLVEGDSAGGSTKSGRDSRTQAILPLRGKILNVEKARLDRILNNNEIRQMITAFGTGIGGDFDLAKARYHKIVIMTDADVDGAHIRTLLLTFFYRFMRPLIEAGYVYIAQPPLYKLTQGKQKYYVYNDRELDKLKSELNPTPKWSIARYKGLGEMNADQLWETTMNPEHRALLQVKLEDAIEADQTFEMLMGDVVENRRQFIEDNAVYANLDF
T1 sequence (P0C1U9 whole entry): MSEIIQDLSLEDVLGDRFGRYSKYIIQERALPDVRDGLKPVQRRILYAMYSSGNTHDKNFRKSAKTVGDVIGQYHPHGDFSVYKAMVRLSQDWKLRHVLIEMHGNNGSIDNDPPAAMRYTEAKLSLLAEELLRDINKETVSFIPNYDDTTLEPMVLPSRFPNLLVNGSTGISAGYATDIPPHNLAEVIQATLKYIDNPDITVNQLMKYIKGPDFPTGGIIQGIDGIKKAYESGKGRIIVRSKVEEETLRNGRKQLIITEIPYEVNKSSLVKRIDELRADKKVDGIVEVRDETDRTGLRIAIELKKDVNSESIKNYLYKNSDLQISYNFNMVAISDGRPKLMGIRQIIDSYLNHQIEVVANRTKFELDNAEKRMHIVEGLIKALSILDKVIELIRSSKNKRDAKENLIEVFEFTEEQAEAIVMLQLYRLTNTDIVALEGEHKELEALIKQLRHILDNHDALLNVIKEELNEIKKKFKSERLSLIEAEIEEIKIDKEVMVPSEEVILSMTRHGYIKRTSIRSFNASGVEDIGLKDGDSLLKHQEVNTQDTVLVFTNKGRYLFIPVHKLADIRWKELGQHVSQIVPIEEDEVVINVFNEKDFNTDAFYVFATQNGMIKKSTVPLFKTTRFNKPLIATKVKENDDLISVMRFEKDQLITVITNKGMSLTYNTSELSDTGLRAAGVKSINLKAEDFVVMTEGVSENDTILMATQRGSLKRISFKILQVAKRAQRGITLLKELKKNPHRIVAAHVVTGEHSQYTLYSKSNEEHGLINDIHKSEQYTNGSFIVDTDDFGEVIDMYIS
T1 sequence (P0C1S7 whole entry): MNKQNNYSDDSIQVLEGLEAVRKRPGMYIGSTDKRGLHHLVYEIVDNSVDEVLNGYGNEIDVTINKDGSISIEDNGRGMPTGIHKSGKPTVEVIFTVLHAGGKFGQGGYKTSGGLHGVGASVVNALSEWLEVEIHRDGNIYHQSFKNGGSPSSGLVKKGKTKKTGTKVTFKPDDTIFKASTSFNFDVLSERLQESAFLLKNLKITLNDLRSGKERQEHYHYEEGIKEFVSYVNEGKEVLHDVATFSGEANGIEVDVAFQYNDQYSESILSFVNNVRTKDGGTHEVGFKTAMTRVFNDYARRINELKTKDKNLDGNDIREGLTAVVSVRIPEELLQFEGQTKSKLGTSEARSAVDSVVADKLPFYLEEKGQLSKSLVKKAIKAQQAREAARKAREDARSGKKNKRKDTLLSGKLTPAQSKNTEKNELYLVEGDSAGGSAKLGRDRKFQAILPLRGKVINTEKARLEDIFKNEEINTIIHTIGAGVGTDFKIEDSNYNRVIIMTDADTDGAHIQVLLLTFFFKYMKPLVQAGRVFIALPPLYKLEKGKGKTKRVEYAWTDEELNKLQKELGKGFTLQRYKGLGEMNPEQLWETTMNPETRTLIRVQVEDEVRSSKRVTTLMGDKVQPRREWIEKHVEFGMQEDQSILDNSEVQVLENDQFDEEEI

For `CC(C)(C)c1ccc(C(O)CCCN2CCC(C(O)(c3ccccc3)c3ccccc3)CC2)cc1` (centres unmarked) [Terfenadine], the values for the CC50 in data set [1] and in data set [2] were 3 to 5 µM and 4.3 to 6.5 µM, respectively.
With `CCc1c2s[nH]c(=O)c2c(=O)n2ccc(-c3cc(C)nc(C)c3)cc12` [Compound 9, 7-(2,6-Dimethylpyridin-4-yl)-9-ethyl-1-thia-2,4a-diaza-cyclopenta[b]naphthalene-3,4-dione hydrochloride], the IC50 – broadly, the concentration that gives 50% inhibition – in data set [3] is below 10 µM; against E. coli DNA gyrase, below 1000 nM; at S. aureus DNA gyrase, above 200 µM. The MIC in the data set on E. coli ATCC 25922 and against S. aureus ATCC 29213 was 10 µg/mL throughout.
Take `CCc1c2s[nH]c(=O)c2c(=O)n2ccc(-c3cc(C)nc(C)c3)cc12` (as salt: hydrochloride) [Compound 9, 7-(2,6-Dimethylpyridin-4-yl)-9-ethyl-1-thia-2,4a-diaza-cyclopenta[b]naphthalene-3,4-dione hydrochloride]: the melting point (in general, the temperature of the solid-liquid transition) was 279 to 280 °C (dec.).
With `CCc1c2s[nH]c(=O)c2c(=O)n2ccc(-c3ccncc3)cc12` (as salt: hydrochloride) [Compound 8, 9-Ethyl-7-pyridin-4-yl-1-thia-2,4a-diaza-cyclopenta[b]naphthalene-3,4-dione hydrochloride], the melting point was 289 to 290 °C (dec.).
For `CCc1c2s[nH]c(=O)c2c(=O)n2ccc(-c3ccncc3)cc12` [Compound 8, 9-Ethyl-7-pyridin-4-yl-1-thia-2,4a-diaza-cyclopenta[b]naphthalene-3,4-dione hydrochloride], the IC50 in data set [3] was below 10 µM; against E. coli DNA gyrase, below 1000 nM; on S. aureus DNA gyrase it was above 200 µM. For the same compound, the MIC in the data set with E. coli ATCC 25922 and against S. aureus ATCC 29213 was 10 µg/mL throughout.
